Counter-ions that a name gives are not always drawn.
Target: AKT1 (Homo sapiens (Human), UniProt P31749)
Assay: Inactive Akt Alpha Screen Assay
Conditions: non *labeled: Akt Alpha Screen assay; read-out: AKT1 biochemical assay, IC50
Protocol: AKT1 activity was assayed using the GSK3-derived biotinylated peptide substrate, crosstide (biotin-[…]), and AlphaScreen™ (Amplified Luminescent Proximity Homogeneous Assay) technology. AKT1 activation was achieved by the addition of the activating kinases PDK1 and MAPKAPK2, lipid vesicles, and ATP. The extent of peptide phosphorylation was determined using a phospho-AKT substrate antibody and acceptor beads conjugated to Protein A and donor beads conjugated to streptavidin that bind to the biotin on the peptide. Excitation of the donor beads converted ambient oxygen to excited singlet oxygen which, when in close proximity to acceptor beads, reacted with acceptor beads resulting in signal amplification. […] The plates were incubated for 30 minutes at room temperature, and then stopped in the dark by the addition of 10 μL stop/detection mixture prepared in assay buffer containing EDTA, AlphaScreen™ Streptavidin Donor and Protein A Acceptor beads, and phospho-AKT substrate antibody for final concentrations of 10 mM EDTA, 500 ng/well of both AlphaScreen™ Streptavidin Donor beads and Protein A Acceptor beads, and phospho-AKT substrate antibody at a final dilution of 1:350. Assay plates were incubated for 90 minutes at room temperature in the dark, and the plates were read on a Perkin Elmer Envision Multilabel plate reader (excitation wavelength: […], emission wavelength: 570 nm). […] Envision Instrument Settings: • Instrument: Perkin Elmer Envision • Plate: 96 well • Program Name: • Excitation: Ex Top • Mirror: General Dual—Slot 2 • Excitation Filter: CFP430 Ex.

AKT1, sequence (P31749 whole entry): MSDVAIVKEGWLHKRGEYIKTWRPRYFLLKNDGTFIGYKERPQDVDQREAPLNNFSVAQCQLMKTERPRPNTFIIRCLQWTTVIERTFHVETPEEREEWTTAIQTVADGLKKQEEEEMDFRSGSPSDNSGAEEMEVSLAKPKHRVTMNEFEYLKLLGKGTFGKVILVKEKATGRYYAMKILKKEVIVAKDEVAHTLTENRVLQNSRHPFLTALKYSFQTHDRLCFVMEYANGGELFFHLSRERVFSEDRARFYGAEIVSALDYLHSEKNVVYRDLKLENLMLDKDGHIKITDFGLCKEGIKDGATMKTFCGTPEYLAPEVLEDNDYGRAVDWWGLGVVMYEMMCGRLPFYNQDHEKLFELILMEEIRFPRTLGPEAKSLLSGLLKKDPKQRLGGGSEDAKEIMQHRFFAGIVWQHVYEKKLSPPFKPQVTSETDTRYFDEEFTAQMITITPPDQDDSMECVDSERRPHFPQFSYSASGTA

Compound | IC50 [nM]
c1ccc(-c2nnc3n2-c2cccnc2Nc2ccccc2-3)cc1 [Example 1, 3-phenyl-9H-benzo[f]pyrido[2,3-b][1,2,4]triazolo[4,3-d][1,4]diazepine] | 2800
c1coc(-c2nnc3n2-c2cccnc2Nc2ccccc2-3)c1 [Example 2] | 6300
Nc1cc(-c2nnc3n2-c2cccnc2Nc2ccccc2-3)ccn1 [Example 3, 4-(9H-benzo[f]pyrido[2,3-b][1,2,4]triazolo[4,3-d][1,4]diazepin-3-yl)pyridin-2-amine] | 13000
c1c[nH]c(-c2nnc3n2-c2cccnc2Nc2ccccc2-3)c1 [Example 4, 3-(1H-pyrrol-2-yl)-9H-benzo[f]pyrido[2,3-b][1,2,4]triazolo[4,3-d][1,4]diazepine] | 7900
Nc1ccc(-c2nnc3n2-c2cccnc2Nc2ccccc2-3)cn1 [Example 5, hydrochloride] | 2100
Cc1ccc(-c2nnc3n2-c2cccnc2Nc2ccccc2-3)cc1 [Example 6, hydrochloride] | 13000
CC(C)(C)c1ccc(-c2nnc3n2-c2cccnc2Nc2ccccc2-3)cc1 [Example 7, 3-(4-(tert-butyl)phenyl)-9H-benzo[f]pyrido[2,3-b][1,2,4]triazolo[4,3-d][1,4]diazepine] | 4700
FC(F)(F)c1ccc(-c2nnc3n2-c2cccnc2Nc2ccccc2-3)cc1 [Example 8, 3-(4-(trifluoromethyl)phenyl)-9H-benzo[f]pyrido[2,3-b][1,2,4]triazolo[4,3-d][1,4]diazepine] | 30000
Clc1ccc(-c2nnc3n2-c2cccnc2Nc2ccccc2-3)cc1 [Example 9, hydrochloride] | 5100
Nc1ccc(-c2nnc3n2-c2cccnc2Nc2ccccc2-3)cc1 [Example 11, hydrochloride] | 730
Clc1ccc(-c2nnc3n2-c2cccnc2Nc2ccccc2-3)cc1Cl [Example 13, hydrochloride] | 5100
CN1c2ccccc2-c2nnc(-c3ccc4ccccc4c3)n2-c2ccccc21 [Example 14, hydrochloride] | 67000
Fc1cccc(F)c1-c1nnc2n1-c1cccnc1Nc1ccccc1-2 [Example 16] | 28000
Fc1ccc(-c2nnc3n2-c2cccnc2Nc2ccccc2-3)c(F)c1 [Example 17] | 7200
Nc1cccc(-c2nnc3n2-c2cccnc2Nc2ccccc2-3)c1 [Example 18, hydrochloride] | 8100
Oc1ccc(-c2nnc3n2-c2cccnc2Nc2ccccc2-3)cc1 [Example 19, 4-(9H-benzo[f]pyrido[2,3-b][1,2,4]triazolo[4,3-d][1,4]diazepin-3-yl)phenol] | 2200
c1ccc(-c2nnc3n2-c2ccccc2Nc2ccccc2-3)cc1 [Example 20, 3-phenyl-9H-dibenzo[b,f][1,2,4]triazolo[4,3-d][1,4]diazepine] | 1900
CN(C)c1ccc(-c2nnc3n2-c2ccccc2Nc2ccccc2-3)cc1 [Example 21, 4-(9H-dibenzo[b,f][1,2,4]triazolo[4,3-d][1,4]diazepin-3-yl)-N,N-dimethylaniline] | 3500
Nc1ccc(-c2nnc3n2-c2ccccc2Nc2ccccc2-3)cc1 [Example 22, 4-(9H-dibenzo[b,f][1,2,4]triazolo[4,3-d][1,4]diazepin-3-yl)aniline] | 1800
OCc1ccc(-c2nnc3n2-c2cccnc2Nc2ccccc2-3)cc1 [Example 23, (4-(9H-benzo[f]pyrido[2,3-b][1,2,4]triazolo[4,3-d][1,4]diazepin-3-yl)phenyl)methanol] | 1000

Compound | IC50 [nM]
O=c1[nH]c2ccccc2n1C1CCN(Cc2ccc(-c3nnc4n3-c3cccnc3Nc3ccccc3-4)cc2)CC1 [Example 24, 1-(1-(4-(9H-benzo[f]pyrido[2,3-b][1,2,4]triazolo[4,3-d][1,4]diazepin-3-yl)benzyl)piperidin-4-yl)-1H-benzo[d]imidazol-2(3H)-one] | 83
COC(=O)c1ccc(-c2nnc3n2-c2cccnc2Nc2ccccc2-3)cc1 [Example 25, methyl 4-(9H-benzo[f]pyrido[2,3-b][1,2,4]triazolo[4,3-d][1,4]diazepin-3-yl)benzoate] | 2600
O=C(c1ccc(-c2nnc3n2-c2cccnc2Nc2ccccc2-3)cc1)N1CCC(n2c(=O)[nH]c3ccccc32)CC1 [Example 26, 1-(1-(4-(9H-benzo[f]pyrido[2,3-b][1,2,4]triazolo[4,3-d][1,4]diazepin-3-yl)benzoyl)piperidin-4-yl)-1H-benzo[d]imidazol-2(3H)-one] | 800
O=C(Nc1ccc(-c2nnc3n2-c2cccnc2Nc2ccccc2-3)cc1)c1ccc2ccccc2c1 [Example 28, N-(4-(9H-benzo[f]pyrido[2,3-b][1,2,4]triazolo[4,3-d][1,4]diazepin-3-yl)phenyl)-2-naphthamide] | 680
O=C(Nc1ccc(-c2nnc3n2-c2cccnc2Nc2ccccc2-3)cc1)c1cc(C(F)(F)F)cc(C(F)(F)F)c1 [Example 29, N-(4-(9H-benzo[f]pyrido[2,3-b][1,2,4]triazolo[4,3-d][1,4]diazepin-3-yl)phenyl)-3,5-bis(trifluoromethyl)benzamide] | 2500
COc1ccc(C(=O)Nc2ccc(-c3nnc4n3-c3cccnc3Nc3ccccc3-4)cc2)cc1 [Example 31, N-(4-(9H-benzo[f]pyrido[2,3-b][1,2,4]triazolo[4,3-d][1,4]diazepin-3-yl)phenyl)-4-methoxybenzamide] | 160
CCCC(=O)Nc1ccc(-c2nnc3n2-c2cccnc2Nc2ccccc2-3)cc1 [Example 32, N-(4-(9H-benzo[f]pyrido[2,3-b][1,2,4]triazolo[4,3-d][1,4]diazepin-3-yl)phenyl)butyramide] | 730
CC(C)CC(=O)Nc1ccc(-c2nnc3n2-c2cccnc2Nc2ccccc2-3)cc1 [Example 33, N-(4-(9H-benzo[f]pyrido[2,3-b][1,2,4]triazolo[4,3-d][1,4]diazepin-3-yl)phenyl)-3-methylbutanamide] | 700
O=C(Nc1ccc(-c2nnc3n2-c2cccnc2Nc2ccccc2-3)cc1)c1cccc2ccccc12 [Example 34, N-(4-(9H-benzo[f]pyrido[2,3-b][1,2,4]triazolo[4,3-d][1,4]diazepin-3-yl)phenyl)-1-naphthamide] | 640
O=C(Cc1cccc2ccccc12)Nc1ccc(-c2nnc3n2-c2cccnc2Nc2ccccc2-3)cc1 [Example 35, N-(4-(9H-benzo[f]pyrido[2,3-b][1,2,4]triazolo[4,3-d][1,4]diazepin-3-yl)phenyl)-2-(naphthalen-1-yl)acetamide] | 950
CC(C)(C)CC(=O)Nc1ccc(-c2nnc3n2-c2cccnc2Nc2ccccc2-3)cc1 [Example 36, N-(4-(9H-benzo[f]pyrido[2,3-b][1,2,4]triazolo[4,3-d][1,4]diazepin-3-yl)phenyl)-3,3-dimethylbutanamide] | 340
O=C(Nc1ccc(-c2nnc3n2-c2cccnc2Nc2ccccc2-3)cc1)c1ccc(F)c(F)c1 [Example 37, N-(4-(9H-benzo[f]pyrido[2,3-b][1,2,4]triazolo[4,3-d][1,4]diazepin-3-yl)phenyl)-3,4-difluorobenzamide] | 150
N#Cc1ccc(C(=O)Nc2ccc(-c3nnc4n3-c3cccnc3Nc3ccccc3-4)cc2)cc1 [Example 38, N-(4-(9H-benzo[f]pyrido[2,3-b][1,2,4]triazolo[4,3-d][1,4]diazepin-3-yl)phenyl)-4-cyanobenzamide] | 140
CCC(=O)Nc1ccc(-c2nnc3n2-c2cccnc2Nc2ccccc2-3)cc1 [Example 39, N-(4-(9H-benzo[f]pyrido[2,3-b][1,2,4]triazolo[4,3-d][1,4]diazepin-3-yl)phenyl)propionamide] | 1800
O=C(Nc1ccc(-c2nnc3n2-c2cccnc2Nc2ccccc2-3)cc1)c1cccnc1 [Example 40, N-(4-(9H-benzo[f]pyrido[2,3-b][1,2,4]triazolo[4,3-d][1,4]diazepin-3-yl)phenyl)nicotinamide] | 260
COc1ccccc1C(=O)Nc1ccc(-c2nnc3n2-c2cccnc2Nc2ccccc2-3)cc1 [Example 41, N-(4-(9H-benzo[f]pyrido[2,3-b][1,2,4]triazolo[4,3-d][1,4]diazepin-3-yl)phenyl)-2-methoxybenzamide] | 520
O=C(Nc1ccc(-c2nnc3n2-c2cccnc2Nc2ccccc2-3)cc1)c1cc2ccccc2s1 [Example 42, N-(4-(9H-benzo[f]pyrido[2,3-b][1,2,4]triazolo[4,3-d][1,4]diazepin-3-yl)phenyl)benzo[b]thiophene-2-carboxamide] | 360
CC(C)(C)C(=O)Nc1ccc(-c2nnc3n2-c2cccnc2Nc2ccccc2-3)cc1 [Example 43, N-(4-(9H-benzo[f]pyrido[2,3-b][1,2,4]triazolo[4,3-d][1,4]diazepin-3-yl)phenyl)pivalamide] | 420
CC(C)(C)c1ccc(C(=O)Nc2ccc(-c3nnc4n3-c3cccnc3Nc3ccccc3-4)cc2)cc1 [Example 44, N-(4-(9H-benzo[f]pyrido[2,3-b][1,2,4]triazolo[4,3-d][1,4]diazepin-3-yl)phenyl)-4-(tert-butyl)benzamide] | 230
CN(C)c1ccc(C(=O)Nc2ccc(-c3nnc4n3-c3cccnc3Nc3ccccc3-4)cc2)cc1 [Example 45, N-(4-(9H-benzo[f]pyrido[2,3-b][1,2,4]triazolo[4,3-d][1,4]diazepin-3-yl)phenyl)-4-(dimethylamino)benzamide] | 1900

Reference: patent publication US8541407B2 (ArQule, Inc., priority 2010, dated 2013)
